One block for each molecule: values may come before it.
Assay: solvent given as SMILES

Structure (SMILES): CCCCCCCCCCCCN1C(=O)c2cccc3c(N(Cc4ccccn4)Cc4ccccn4)c4ccccc4c(c23)C1=O
emission maximum (in C1CCOC1): 583 nm
emission maximum (in CCCCCC): 555 nm
emission maximum (in CCO): 597 nm
emission maximum (in Cc1ccccc1): 573 nm
emission maximum (in ClCCl): 587 nm

emission maximum (in CO): 375 nm
Structure (SMILES): COc1ccccc1-c1nc(-c2ccccc2)c(-c2ccccc2)[nH]1

emission maximum (in ClCCl): 352 nm
Structure (SMILES): CCCCCCn1c2c(c3ccccc31)-c1c(c3ccccc3n1CCCCCC)-c1c(c3ccccc3n1CCCCCC)-c1c-2c2ccccc2n1CCCCCC

Structure (SMILES): CCN(CC)c1ccc(-c2nc3c(nc2-c2ccc(B(c4c(C)cc(C)cc4C)c4c(C)cc(C)cc4C)cc2)c2ccccc2n3C)cc1
emission maximum (in C1CCCCC1): 462 nm
emission maximum (in C1CCOC1): 528 nm
emission maximum (in CC(C)=O): 544 nm
emission maximum (in CS(C)=O): 567 nm
emission maximum (in Cc1ccccc1): 493 nm

emission maximum (in CC#N): 524 nm
Structure (SMILES): c1cc2oc3cccc4oc5cccc6oc(c1)c2[c+](c34)c65

Structure (SMILES): Nc1ccc2c3c(cccc13)C(=O)c1ccccc1-2
emission maximum (in CC#N): 626.17 nm
emission maximum (in CC(C)=O): 610.13 nm
emission maximum (in CC(C)O): 664.89 nm
emission maximum (in CCCCOCCCC): 570.13 nm
emission maximum (in CCOC(C)=O): 592.07 nm
emission maximum (in CCOCC): 585.14 nm
emission maximum (in CO): 667.11 nm
emission maximum (in Cc1ccccc1): 569.15 nm
emission maximum (in Clc1ccccc1): 579.04 nm
emission maximum (in N#Cc1ccccc1): 610.13 nm
emission maximum (in O=C1CCCCC1): 610.13 nm

emission maximum (in C1CCCCC1): 413 nm
Structure (SMILES): CCCC1(CCC)c2cc(-c3ccc(C(C)(C)C)cc3)ccc2-c2ccc(-c3ccc4c(c3)C(CCC)(CCC)c3cc(-c5ccc6c(c5)C(CCC)(CCC)c5cc(-c7ccc8c(c7)C(CCC)(CCC)c7cc(-c9ccc(C(C)(C)C)cc9)ccc7-8)ccc5-6)ccc3-4)cc21

emission maximum (in ClC(Cl)Cl): 574 nm
Structure (SMILES): N#Cc1nc(N(Cc2ccc(I)cc2)Cc2ccc(I)cc2)c(C#N)nc1N(Cc1ccc(I)cc1)Cc1ccc(I)cc1

emission maximum (in CC#N): 322 nm
Structure (SMILES): O=c1[nH]cc(F)c(=O)[nH]1

Structure (SMILES): c1ccc(-c2nn(-c3ccccc3)c3nc4ccc(N(c5ccccc5)c5cccc6ccccc56)cc4cc23)cc1
emission maximum (in C1CCCCC1): 484.73 nm
emission maximum (in C1CCOC1): 516 nm
emission maximum (in CC#N): 555.25 nm
emission maximum (in CC(C)=O): 538.21 nm
emission maximum (in CCCCCl): 509.68 nm
emission maximum (in CCCCOCCCC): 494.8 nm
emission maximum (in CN(C)C=O): 553.1 nm

emission maximum (in CC#N): 450 nm
emission maximum (in CCCCCC): 383 nm
Structure (SMILES): Cc1cccc(C)c1Nc1ccc(/C=C/c2cccnc2)cc1

emission maximum (in ClCCl): 530 nm
Structure (SMILES): C(=C\c1ncccn1)/c1ccc(-c2ccc(N(c3ccccc3)c3ccccc3)cc2)cc1

emission maximum (in ClCCl): 625 nm
Structure (SMILES): CN(C)c1ccc(C2=CC3=C(c4ccc([N+](=O)[O-])cc4)[C@H]4c5ccccc5[C@]3(S2)c2ccccc24)cc1

emission maximum (in C1CCOC1): 577 nm
Structure (SMILES): COc1cc2oc(=O)c3c4ccc(N(C)C)cc4c4ccc5cccc6c(c1)c2c3c4c56

emission maximum (in ClCCl): 519 nm
Structure (SMILES): CCN(CC)c1ccc2cc(-c3nc4c5cccc6ccc7cccc(c7c65)c4n3-c3ccc(C(C)(C)C)cc3)c(=O)oc2c1

emission maximum (in ClC(Cl)Cl): 440 nm
Structure (SMILES): Cc1ccc(C2CC(=O)Oc3c2c2nc4ccccc4nc2c2ccccc32)cc1 (stereo unspecified)

emission maximum (in ClC(Cl)Cl): 478.2 nm
Structure (SMILES): COc1ccc(C2=Cc3c4ccccc4cc[n+]3[B-](F)(F)O2)cc1

Structure (SMILES): CC1(C)c2ccccc2N(c2ccc3c(c2)Oc2ccccc2P3(=O)c2ccccc2)c2ccccc21 (stereo unspecified)
emission maximum (in Cc1ccccc1): 433 nm
emission maximum (in O=P(c1ccccc1)(c1ccccc1)c1ccccc1Oc1ccccc1P(=O)(c1ccccc1)c1ccccc1): 434 nm

Structure (SMILES): Nc1ccc2c(c1)Cc1ccccc1-2
emission maximum (in C1CCCCC1): 347 nm
emission maximum (in C1COCCO1): 363 nm
emission maximum (in CC#N): 363 nm
emission maximum (in CC(C)O): 369 nm
emission maximum (in CCCCCC): 344 nm
emission maximum (in CCCCCCC): 344 nm
emission maximum (in CCO): 368 nm
emission maximum (in CCOC(C)=O): 360 nm
emission maximum (in CCOCC): 349 nm
emission maximum (in CO): 367 nm
emission maximum (in ClCCl): 353 nm
emission maximum (in O): 377 nm

Structure (SMILES): CCCCCCCCCCCCOc1cc(/C=C/c2ccc3c(c2)C(CC)(CC)c2cc(N4c5ccccc5Sc5ccccc54)ccc2-3)c(OCCCCCCCCCCCC)cc1/C=C/c1ccc2c(c1)C(CC)(CC)c1cc(N3c4ccccc4Sc4ccccc43)ccc1-2
emission maximum (in C1CCOC1): 474 nm
emission maximum (in CC#N): 473 nm
emission maximum (in CCCCCC): 477 nm
emission maximum (in Cc1ccccc1): 468 nm
emission maximum (in ClCCl): 477 nm

Structure (SMILES): CCN1C(=O)C(C2C(=O)c3c4ccccc4cc4cc5ccccc5c2c34)SC1=S (stereo unspecified)
emission maximum (in C1CCOC1): 570 nm
emission maximum (in CC#N): 593 nm
emission maximum (in CCCCCC): 539 nm
emission maximum (in Cc1ccccc1): 563 nm
emission maximum (in ClCCl): 582 nm

emission maximum (in CO): 448 nm
Structure (SMILES): C1=CC2=Nc3cccc[n+]3CN2C=C1

emission maximum (in C1CCCCC1): 384 nm
emission maximum (in C1COCCO1): 399 nm
emission maximum (in CC#N): 401 nm
emission maximum (in CC(C)(C)O): 406 nm
emission maximum (in CC(C)O): 407 nm
emission maximum (in CCCCCC): 382 nm
emission maximum (in CCCCO): 407 nm
emission maximum (in CCOC(C)=O): 398 nm
emission maximum (in CN(C)C=O): 401 nm
emission maximum (in CO): 408 nm
emission maximum (in ClCCl): 400 nm
emission maximum (in O): 424 nm
Structure (SMILES): O=C1Nc2ccccc2/C1=C/C(=O)c1ccc(O)cc1

emission maximum (in C1CCOC1): 492 nm
Structure (SMILES): Cc1ccc(-c2ccc(-c3ccc(C)cc3)c(/C(=C(/c3ccccc3)c3cc(-c4ccc(C)cc4)ccc3-c3ccc(C)cc3)c3ccccc3)c2)cc1

emission maximum (in ClCCl): 412 nm
Structure (SMILES): CCn1c2ccc(/C=C(\C#N)c3ccccc3)cc2c2cc(/C=C(\C#N)c3ccccc3)ccc21

emission maximum (in CC#N): 470 nm
Structure (SMILES): Cn1c(-c2ccc(-c3nc(-c4ccccc4)c(-c4ccccc4)n3C)s2)nc(-c2ccccc2)c1-c1ccccc1

Structure (SMILES): O=C(/C=C/c1cn(-c2ccccc2)nc1-c1ccccc1)c1c(O)c2ccccc2oc1=O
emission maximum (in C1CCOC1): 489 nm
emission maximum (in C1COCCO1): 482 nm
emission maximum (in CCO): 507 nm
emission maximum (in CCOC(C)=O): 487 nm
emission maximum (in CN(C)C=O): 505 nm
emission maximum (in CO): 504 nm
emission maximum (in CS(C)=O): 510 nm
emission maximum (in Cc1ccccc1): 480 nm
emission maximum (in ClC(Cl)Cl): 493 nm
emission maximum (in ClCCl): 502 nm

emission maximum (in ClCCl): 365 nm
Structure (SMILES): CN(C)c1ccc(-c2cc(-c3ccccc3)nn2C)cc1

emission maximum (in O): 485 nm
Structure (SMILES): O=S(=O)([O-])c1ccc2c([O-])cc(S(=O)(=O)[O-])cc2c1

emission maximum (in ClCCl): 537 nm
Structure (SMILES): CCC(C)Nc1c2ccc(=[N+]3CCCCC3)cc-2oc2cc(N3CCCCC3)ccc12 (stereo unspecified)

Structure (SMILES): Cc1cc(C)c(B(c2ccc(C#Cc3cc4ccc5cc(C#Cc6ccc(B(c7c(C)cc(C)cc7C)c7c(C)cc(C)cc7C)cc6)cc6ccc(c3)c4c56)cc2)c2c(C)cc(C)cc2C)c(C)c1
emission maximum (in Cc1ccccc1): 426 nm

Structure (SMILES): CC1=CC(c2ccc(N(C)C)cc2)=[N+]2C1=Nc1c(C)cc(-c3ccc(N(C)C)cc3)n1[B-]2(F)F
emission maximum (in C1CCOC1): 791 nm
emission maximum (in CS(C)=O): 822 nm
emission maximum (in Cc1ccccc1): 779 nm

emission maximum (in ClCCl): 454 nm
Structure (SMILES): N#Cc1ccc(N(c2ccccc2)c2ccc3ccc4c(N(c5ccccc5)c5ccc(C#N)cc5)ccc5ccc2c3c54)cc1

Structure (SMILES): O=P(c1ccccc1)(c1ccccc1)n1c2ccccc2c2ccccc21
emission maximum (in C1CCOC1): 360 nm
emission maximum (in CC(C)=O): 406 nm
emission maximum (in Cc1ccccc1): 372 nm
emission maximum (in ClCCl): 355 nm

emission maximum (in ClCCl): 529 nm
Structure (SMILES): CCCCCCCCCCCCN1C(=O)c2c(c3ccc4cc(-c5ccc(C)cc5)c(OC)cc4c3c3c2ccc2cc(-c4ccc(C)cc4)c(OC)cc23)C1=O

emission maximum (in CN(C)C=O): 450 nm
Structure (SMILES): Cc1nc2cccc(-c3nc4ccc([N+](=O)[O-])cc4[nH]3)c2c(=O)[nH]1

emission maximum (in C1CCOC1): 424 nm
Structure (SMILES): O=c1oc2cccc3c4cccc5ccc6c7cc(F)ccc7c1c(c23)c6c54

Structure (SMILES): CCN(CC)c1ccc2cc(/C=C/C(=O)/C=C(O)/C=C/c3cc4ccc(N(CC)CC)cc4oc3=O)c(=O)oc2c1
emission maximum (in C1CCOC1): 568 nm
emission maximum (in C1COCCO1): 561 nm
emission maximum (in CC#N): 609 nm
emission maximum (in CC(C)=O): 598 nm
emission maximum (in CCOC(C)=O): 566 nm
emission maximum (in CN(C)C=O): 611 nm
emission maximum (in CS(C)=O): 621 nm
emission maximum (in Cc1ccccc1): 542 nm
emission maximum (in ClC(Cl)Cl): 581 nm
emission maximum (in ClCCl): 593 nm

emission maximum (in ClCCl): 552 nm
emission maximum (in c1ccccc1): 514 nm
Structure (SMILES): CCCCN(CCCC)c1ccc(C#Cc2cc(C#Cc3ccc(N(CCCC)CCCC)cc3)c(C#Cc3cc(C(F)(F)F)cc(C(F)(F)F)c3)cc2C#Cc2cc(C(F)(F)F)cc(C(F)(F)F)c2)cc1

emission maximum (in ClCCl): 401 nm
Structure (SMILES): C(=C\c1ccncn1)/c1ccc(-c2ccco2)cc1

emission maximum (in C1CCOC1): 684 nm
emission maximum (in CS(C)=O): 695 nm
emission maximum (in ClCCl): 687 nm
Structure (SMILES): COCCOCCOCCOc1ccc(/C=C/C2=[N+]3C(=C(c4cc(OC)cc(OC)c4)c4c(C)c(I)c(/C=C/c5ccc(OCCOCCOCCOC)cc5)n4[B-]3(F)F)C(C)=C2I)cc1

emission maximum (in CC#N): 348 nm
emission maximum (in CO): 356 nm
emission maximum (in O): 400 nm
Structure (SMILES): CNCCCN1c2ccccc2CCc2ccccc21

emission maximum (in ClCCl): 604 nm
Structure (SMILES): COC(=O)c1ccc(C2=C3C=c4sccc4=[N+]3[B-](F)(F)n3c2cc2sccc23)cc1

emission maximum (in CCO): 457 nm
Structure (SMILES): O=c1c2cc(F)c(N3CCCCC3)cc2oc2cc(N3CCCCC3)c(F)cc12

emission maximum (in ClCCl): 673 nm
Structure (SMILES): COc1ccc(C2=C3C(/C=C/c4cc(OC)c(OC)c(OC)c4)=C(C=O)C(C)=[N+]3[B-](F)(F)n3c(C)c(C=O)c(C=Cc4cc(OC)c(OC)c(OC)c4)c32)cc1

emission maximum (in ClCCl): 387 nm
Structure (SMILES): C(=C\c1ccc(-c2ccncc2)cc1)/c1ccc(-c2ccncc2)cc1

emission maximum (in CCO): 561 nm
Structure (SMILES): CCOC(=O)c1cc(C(=O)OCC)c2cc(N(CC)CC)ccc2n1

Structure (SMILES): CCCCCCN(c1ccccc1)c1ccc2c(c1)C(CC)(CC)c1cc(/C=C/c3ccc(/C=C(\C#N)C(=O)O)s3)ccc1-2
emission maximum (in C1CCOC1): 651 nm
emission maximum (in C1COCCO1): 620 nm
emission maximum (in CC#N): 554 nm
emission maximum (in CC(C)=O): 574 nm
emission maximum (in CCOC(C)=O): 654 nm
emission maximum (in CN(C)C=O): 605 nm
emission maximum (in CS(C)=O): 627 nm
emission maximum (in ClCCl): 594 nm

emission maximum (in CC#N): 663 nm
Structure (SMILES): COC(=O)/C=C/c1sc(-c2ccc(N(C)C)s2)c(-c2cn(C)c3ccccc23)c1O

emission maximum (in CC#N): 531 nm
Structure (SMILES): Cc1cc2nc3c(=O)n(C)c(=O)nc-3n(C)c2cc1C
